Test results as given in PubChem BioAssay (NCI).
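Five compound concentrations were applied to cells in 96-well plates for 48 hours; endpoints were derived by simple linear interpolation of the resulting dose-response curve. GI50: concentration for 50% inhibition of growth. Definition used: TGI = concentration required for complete inhibition of growth.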

Columns and labels:
Assay in all cases: growth of human tumour cells (NCI), 48 h
[1] = test system: NCI-H460 lung
[2] = test system: ACHN renal
[3] = test system: HOP-92 NSCLC
[4] = test system: IGROV1 ovarian
[5] = test system: MOLT-4 leukemia
[6] = test system: SW-620 colon
[7] = test system: EKVX NSCLC
[8] = test system: UACC-62 melanoma
[9] = test system: 786-0 renal
[10] = test system: COLO 205 colon
[11] = test system: OVCAR-4 ovarian
[12] = test system: MDA-MB-435
[13] = test system: SR leukemia
[14] = test system: CAKI-1 renal
[15] = test system: SK-OV-3 ovarian
[16] = test system: NCI-H226 lung
[17] = test system: OVCAR-5 ovarian
[18] = test system: OVCAR-3 ovarian
[19] = test system: HL-60(TB) leukemia
[20] = test system: LOX IMVI melanoma
[21] = test system: SF-268 CNS
[22] = test system: SF-295 CNS
[23] = test system: CCRF-CEM leukemia
[24] = test system: A498 renal
[25] = test system: MALME-3M melanoma
[26] = test system: T-47D breast
[27] = test system: HS 578T breast
[28] = test system: SNB-19 CNS
[29] = test system: HCT-116 colon
[30] = test system: PC-3 prostate
[31] = test system: SF-539 CNS
[32] = test system: OVCAR-8 ovarian
[33] = test system: RXF 393 renal
[34] = test system: HCC-2998 colon
[35] = test system: HOP-62 NSCLC
[36] = test system: A549 NSCLC
[37] = test system: SNB-75 CNS
[38] = test system: K-562 leukemia
[39] = test system: NCI-H23 lung
[40] = test system: NCI/ADR-RES ovarian
[41] = test system: SK-MEL-5 melanoma
[42] = test system: KM12 colon
[43] = test system: HT29 colon
[44] = test system: DU-145 prostate
[45] = test system: UACC-257 melanoma
[46] = test system: U251 CNS
[47] = test system: HCT-15 colon
[48] = test system: SK-MEL-28 melanoma
[49] = test system: MCF7 breast
[50] = test system: SN12C renal
[51] = test system: NCI-H522 lung
[52] = test system: TK-10 renal
[53] = test system: M14 melanoma
[54] = test system: SK-MEL-2 melanoma
[55] = test system: UO-31 renal
[56] = test system: BT-549 breast
[57] = test system: MDA-MB-231 breast
[58] = test system: RPMI-8226 leukemia

In the case of Nc1cccc(/C=C/CN2CCN(CCOC(c3ccccc3)c3ccccc3)CC2)c1, the TGI [1] is reported as 27.7 µM, the TGI [2] is reported as 32.2 µM and the TGI [3] is reported as 25.4 µM. For the same compound, the TGI [4] was 30.1 µM, the TGI [5] was 19.2 µM and the TGI [6] was 33.9 µM. The TGI [7] was 32 µM, the TGI [8] was 31.7 µM and the TGI [9] was 30.5 µM. For the same compound, the TGI [10] was 20.9 µM, the TGI [11] was 27.7 µM and the TGI [12] was 28.1 µM. It also gave a TGI [13] of 17.4 µM, a TGI [14] of 34.1 µM and a TGI [15] of 27 µM. It also gave a TGI [16] of 40.4 µM, a TGI [17] of 30.5 µM and a TGI [18] of 29.1 µM. For the same compound, the TGI [19] was 22.9 µM, the TGI [20] was 28.9 µM and the TGI [21] was 35.7 µM. The TGI [22] was 31.4 µM, the TGI [23] was 25.7 µM and the TGI [24] was 32.5 µM. For the same compound, the TGI [25] was 34.7 µM, the TGI [26] was 26 µM and the TGI [27] was 48 µM. The TGI [28] was 30.7 µM, the TGI [29] was 25.4 µM and the TGI [30] was 30 µM. The TGI [31] was 31.7 µM, the TGI [32] was 30.1 µM and the TGI [33] was 25.5 µM. The TGI [34] was 11.9 µM, the TGI [35] was 26.9 µM and the TGI [36] was 29.7 µM. For the same compound, the TGI [37] was 22.7 µM, the TGI [38] was 16.3 µM and the TGI [39] was 30.7 µM. The TGI [40] was 29.5 µM, the TGI [41] was 26.8 µM and the TGI [42] was 25.4 µM. For the same compound, the TGI [43] was 13.1 µM, the TGI [44] was 26.4 µM and the TGI [45] was 31.1 µM. It also gave a TGI [46] of 30.5 µM, a TGI [47] of 26.1 µM and a TGI [48] of 27.1 µM. For the same compound, the TGI [49] was 29.4 µM, the TGI [50] was 36 µM and the TGI [51] was 27.7 µM. It also gave a TGI [52] of 29.6 µM, a TGI [53] of 25.9 µM and a TGI [54] of 33.6 µM. For the same compound, the TGI [55] was 27.4 µM, the TGI [56] was 29.9 µM and the TGI [57] was 30.3 µM. For the same compound, the TGI [58] was 15.2 µM.
In the case of O=c1c(-c2ccc3c(c2)OCO3)coc2c(CO)c(O)ccc12, the GI50 [1] is reported as 2600 nM, the TGI [1] is reported as 7.85 µM and the GI50 [2] is reported as 1820 nM. It also gave a TGI [2] of 5.34 µM, a GI50 [3] of 2020 nM and a TGI [3] of 4.86 µM. For the same compound, the GI50 [4] was 2010 nM, the TGI [4] was 4.93 µM and the GI50 [5] was 30.2 µM. For the same compound, the TGI [5] was > 100 µM, the GI50 [6] was 4.06 µM and the TGI [6] was 18.5 µM. It also gave a GI50 [7] of 2790 nM, a TGI [7] of 8.81 µM and a GI50 [8] of 1660 nM. It also gave a TGI [8] of 3.59 µM, a GI50 [9] of 1970 nM and a TGI [9] of 4.6 µM. The GI50 [10] was 20.9 µM, the TGI [10] was 45.5 µM and the GI50 [11] was 3.39 µM. It also gave a TGI [11] of 18.1 µM, a GI50 [12] of 4.78 µM and a TGI [12] of 19.5 µM. For the same compound, the GI50 [13] was 2650 nM, the TGI [13] was > 100 µM and the GI50 [15] was 2410 nM. The TGI [15] was 6.39 µM, the GI50 [16] was 1810 nM and the TGI [16] was 4.46 µM. It also gave a GI50 [17] of 3.3 µM, a TGI [17] of 10.5 µM and a GI50 [18] of 2070 nM. The TGI [18] was 4.26 µM, the GI50 [19] was 2250 nM and the TGI [19] was 5.9 µM. It also gave a GI50 [20] of 1280 nM, a TGI [20] of 3.41 µM and a GI50 [21] of 1960 nM. The TGI [21] was 4.41 µM, the GI50 [22] was 2200 nM and the TGI [22] was 6.18 µM. The GI50 [23] was 3.44 µM, the TGI [23] was > 100 µM and the GI50 [24] was 1760 nM. The TGI [24] was 3.95 µM, the GI50 [25] was 1570 nM and the TGI [25] was 3.47 µM. For the same compound, the GI50 [26] was 2480 nM, the TGI [26] was 14.9 µM and the GI50 [27] was 2280 nM. The TGI [27] was 7.12 µM, the GI50 [28] was 2870 nM and the TGI [28] was 10.3 µM. It also gave a GI50 [29] of 2000 nM, a TGI [29] of 4.94 µM and a GI50 [30] of 1540 nM. It also gave a TGI [30] of 4.03 µM, a GI50 [31] of 2280 nM and a TGI [31] of 6.46 µM. For the same compound, the GI50 [32] was 4.42 µM, the TGI [32] was 30.5 µM and the GI50 [33] was 941 nM. The TGI [33] was 2.29 µM, the GI50 [34] was 2010 nM and the TGI [34] was 3.89 µM. It also gave a GI50 [35] of 2070 nM, a TGI [35] of 5.01 µM and a GI50 [36] of 6.8 µM. The TGI [36] was 30.9 µM, the GI50 [37] was 2390 nM and the TGI [37] was 7.43 µM. For the same compound, the GI50 [38] was 2870 nM, the TGI [38] was > 100 µM and the GI50 [39] was 4.87 µM. For the same compound, the TGI [39] was 24.5 µM, the GI50 [40] was 3.72 µM and the TGI [40] was 21.4 µM. It also gave a GI50 [41] of 1910 nM, a TGI [41] of 3.98 µM and a GI50 [42] of 3.24 µM. For the same compound, the TGI [42] was 13.3 µM, the GI50 [43] was 16.9 µM and the TGI [43] was 44.8 µM. For the same compound, the GI50 [44] was 2410 nM, the TGI [44] was 7.06 µM and the GI50 [45] was 2590 nM. For the same compound, the TGI [45] was 7.46 µM, the GI50 [46] was 1920 nM and the TGI [46] was 5.03 µM. The GI50 [47] was 2350 nM, the TGI [47] was 6.46 µM and the GI50 [48] was 5.91 µM. For the same compound, the TGI [48] was 22.7 µM, the GI50 [49] was 2720 nM and the TGI [49] was 25.4 µM. It also gave a GI50 [50] of 1820 nM, a TGI [50] of 5.51 µM and a GI50 [51] of 4.55 µM. It also gave a TGI [51] of 20.8 µM, a GI50 [52] of 2280 nM and a TGI [52] of 6.78 µM. The GI50 [53] was 3.2 µM, the TGI [53] was 14.8 µM and the GI50 [54] was 2250 nM. The TGI [54] was 5.87 µM, the GI50 [55] was 2890 nM and the TGI [55] was 12 µM. For the same compound, the GI50 [56] was 1470 nM, the TGI [56] was 3.41 µM and the GI50 [57] was 2010 nM. The TGI [57] was 5.09 µM, the GI50 [58] was 3.64 µM and the TGI [58] was 53.6 µM.
